Molecular target: Toll-like receptor 4 (Homo sapiens, UniProt O00206)
Experiment: Inhibition of induction of NF-kappaB by LPS in HEK293 cells co-transfected with TLR4, CD14 and MD2

Toll-like receptor 4, sequence (O00206 whole entry): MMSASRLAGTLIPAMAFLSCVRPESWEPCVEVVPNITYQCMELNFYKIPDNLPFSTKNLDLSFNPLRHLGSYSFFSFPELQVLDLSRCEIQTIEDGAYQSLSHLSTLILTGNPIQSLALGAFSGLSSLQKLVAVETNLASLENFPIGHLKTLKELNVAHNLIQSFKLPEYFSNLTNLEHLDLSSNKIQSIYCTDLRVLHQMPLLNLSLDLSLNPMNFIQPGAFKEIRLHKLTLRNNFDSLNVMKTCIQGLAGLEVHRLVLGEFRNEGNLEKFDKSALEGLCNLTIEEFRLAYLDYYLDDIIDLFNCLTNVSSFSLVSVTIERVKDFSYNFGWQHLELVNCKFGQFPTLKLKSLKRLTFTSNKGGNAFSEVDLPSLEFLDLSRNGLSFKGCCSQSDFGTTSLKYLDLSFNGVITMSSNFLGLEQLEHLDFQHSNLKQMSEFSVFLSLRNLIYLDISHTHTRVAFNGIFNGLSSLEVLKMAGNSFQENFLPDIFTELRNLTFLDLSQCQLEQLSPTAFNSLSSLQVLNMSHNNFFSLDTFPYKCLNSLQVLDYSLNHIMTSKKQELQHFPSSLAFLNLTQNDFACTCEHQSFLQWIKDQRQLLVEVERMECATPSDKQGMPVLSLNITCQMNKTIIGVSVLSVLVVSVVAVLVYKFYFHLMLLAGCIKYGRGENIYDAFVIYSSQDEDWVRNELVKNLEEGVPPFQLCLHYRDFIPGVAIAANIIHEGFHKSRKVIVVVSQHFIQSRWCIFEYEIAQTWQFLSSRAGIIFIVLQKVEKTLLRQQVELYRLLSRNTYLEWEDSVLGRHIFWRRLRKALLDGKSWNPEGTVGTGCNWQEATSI

| SMILES | IC50 [µM] |
| --- | --- |
| CCOc1c(C=NN=C(N)N)ccc(C=NN=C(N)N)c1OCC | 35.6 |
| CCCCCCCCOc1c(C=NN=C(N)N)ccc(C=NN=C(N)N)c1OCCCCCCCC | 4.5 |
| COc1c(C=NN=C(N)N)ccc(C=NN=C(N)N)c1OC | 175 |
| CCCCOc1c(C=NN=C(N)N)ccc(C=NN=C(N)N)c1OCCCC | 9.4 |
| NC(N)=NN=Cc1ccc(C=NN=C(N)N)cc1 | 164 |
| CCCOc1c(C=NN=C(N)N)ccc(C=NN=C(N)N)c1OCCC | 27.6 |
| C=CCOc1c(C=NN=C(N)N)ccc(C=NN=C(N)N)c1OCC=C | 61.4 |
| CCCCCOc1c(C=NN=C(N)N)ccc(C=NN=C(N)N)c1OCCCCC | 10.5 |
| NC(N)=NN=Cc1ccc(C=NN=C(N)N)c(O)c1O | 59.1 |
| CCCCCCOc1c(C=NN=C(N)N)ccc(C=NN=C(N)N)c1OCCCCCC | 6.11 |
| CCCCCCCCCCCCCCOc1c(C=NN=C(N)N)ccc(C=NN=C(N)N)c1OCCCCCCCCCCCCCC | 190 |

— BindingDB's records for doi:10.1016/j.bmcl.2005.11.059 (University of Kansas, 2006)
